Laboratory results taken from patent US7399786B2, “Derivatives of amino acids for treatment of obesity and related disorders” (Bexel Pharmaceuticals, Inc., priority 2005, dated 2008).

What was measured:
IL-1β = IL-1β inhibition in hPBMC, LPS challenge, ELISA; assay type: cell-based, human; conditions: 1 μM, LPS 100 ng/mL for 20 hours
Description: (§1) Cells (1×10^6/mL) were challenged with lipopolysaccharides (LPS) at a concentration of (100 ng/mL) for 20 hours. Cell supernatant was analyzed for the presence of IL-6 and IL-1β by antibody directed enzyme-linked immunoassay (R & D Systems, MN, USA).

IL-6 = IL-6 inhibition in hPBMC, LPS challenge, ELISA; assay type: cell-based, human; conditions: 1 μM, LPS 100 ng/mL for 20 hours
Description: as §1

3T3-L1 cells = test: PPARγ agonist induced adipocyte differentiation, Oil red O staining; assay type: cell-based, mouse; conditions: 11 days
Description: Adipogenesis is defined as the production of fat laden adipocytes from fibroblast cells. All known PPARγ agonists induce adipogenesis after a long term of treatment. […] Cells were cultured for 11 days and every 48 h fresh drug was given while changing the media.

LPS induced NO = test: Inhibition of LPS induced NO in mouse peritoneal macrophages; assay type: cell-based; conditions: compound 1 hour then LPS 10 μg/mL for 48 hrs
Description: Mouse peritoneal macrophages were isolated by injecting warm PBS in the peritoneum and cells were tapped out with syringe and stored in a tube. After two washes with PBS, cells were plated in 96 well plates and incubated with compound 9 for 1 hour and then challenged with LPS (10 μg/mL) for 48 hrs. Supernatant was assayed for NO by ELISA kit (R&D Biosystems).

[1] = Hypoglycemic effect in normal lean mice; assay type: in vivo, C57BL/6J lean male mice; conditions: 50 mg/kg body weight for 60 days, measured every third day
Description: C57BL/6J lean male mice were fed, ad libitum, with laboratory rodent diet and purified water. Animals were treated with compound 9 at a dose of 50 mg/kg body weight for 60 days. Blood glucose was measured with an ACCUCHECK® glucose meter every third day during morning hours. No change in blood glucose levels was observed.

[2] = High fat diet induced obesity (DIO) model; assay type: in vivo, C57BL/6J male mice; conditions: DIO mice
Description: Six week old C57BL/6J male mice were fed with high fat (60%) diet for 14 days. From day 15 onwards animals were treated with compound 9 at a dose of 50 mg/kg body weight or sibutramine (5 mg/kg bw) for 60 days. All the animals were dosed once daily during morning hours up to day 15. From day 16 to end of the study animals were dosed during evening hours.

[3] = 50 mg/kg for 60 days, compared to control animals

SMILES | inhibition of IL-1β (IL-1β) | inhibition of IL-6 (IL-6) | adipocyte differentiation (adipogenesis), compound alone (3T3-L1 cells; 10 μM alone, Oil red O) | adipogenesis induced by PPARγ agonist, combined treatment (3T3-L1 cells; compound 10 μM mixed with rosiglitazone 1 μM) | NO production (LPS induced NO) | blood glucose levels [1] | body weight ([2]; 50 mg/kg body weight once daily for 60 days) | oral glucose tolerance ([2]; 50 mg/kg for 60 days) | free fatty acid levels [2, 3] | triglyceride levels [2, 3] | bodyweight gain ([2]; 5 mg/kg bw once daily for 60 days)
CN(C)C(=O)[C@@H](N)Cc1ccc(Oc2ccc(CCC(=O)NO)cc2)cc1.Cl [compound 9, L-2-amino-3-{4-[4-(2-hydroxycarbamoylethyl)-phenoxy]-phenyl}-N,N-dimethylpropionamide hydrochloride] | inhibition | inhibition | not adipogenic | blocks the adipogenesis process induced by PPARγ agonist | doses dependently inhibited NO production | No change | lowered body weight | improved | significantly lowered | significantly lowered | 
CC(C)CC(N(C)C)C1(c2ccc(Cl)cc2)CCC1 (centres unmarked) [Sibutramine, reference compound] |  |  |  |  |  |  |  |  |  |  | Reduced Bodyweight Gain
